# Key:
# [1] = system: anti-peptide IgG in plasma; test: Test Example 4: peptide-specific IgG titer pre and post vaccination, bead-based multiplexed Luminex assay; assay type: in vivo, human; conditions: for Pre-vaccination IgG Negative (number of patients) / Pre-vaccination IgG Positive (number of patients): cut off 10 FIU; for Post vaccination IgG: number of (positive) patients among vaccinated: positive IgG response; for Pre-vaccination IgG Negative patients: number of 2,588 patients below 10 FIU; for Pre-vaccination IgG Positive patients: number of 2,588 patients with ≥10 FIU; for Post vaccination IgG: (positive) patients: number of vaccinated patients with positive IgG response; for Correlation between immune responses and OS: Negative (mOS): patients with negative post-vaccination IgG response to the peptide; for Correlation between immune responses and OS: Positive (mOS): patients with positive post-vaccination IgG response to the peptide
# Summary of the method: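 Plasma taken before vaccination and at the end of the first and second cycles; incubated with peptide-coupled beads 2 hours at 25° C., then biotinylated anti-human IgG (gamma chain-specific) and streptavidin-PE. Bead FIU read by Luminex; positivity cutoff 10 FIU in 100-fold diluted samples.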
# [2] = system: cancer patients; test: Test Example 4: correlation between vaccination with individual peptides (or peptide sets) and OS, Cox proportional hazards regression; assay type: in vivo, human; conditions: for HR: Cox proportional hazards regression, OS; for Correlation between immune responses and OS: Negative (mOS) / Correlation between immune responses and OS: Positive (mOS): Table 20, <64% neutrophil and ≥26% lymphocyte; for Correlation between immune responses and OS: Negative (mOS): vaccinated patients with negative IgG response; for Correlation between immune responses and OS: Positive (mOS): vaccinated patients with positive IgG response
# Summary of the method: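 Univariate and multivariate Cox proportional hazards regression of each of 31 vaccine peptides against OS (enrollment to death or last contact), giving HR with 95% CI; also run separately in 2,085 advanced (stage IV+recurrence) and 503 stage I-III patients. Two-sided p<0.05 considered significant.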
# [3] = Table 20, patients showing both <64% neutrophil and ≥26% lymphocyte
# [4] = patients showing detectable levels
# [5] = patients showing positive responses
# [6] = Table 18, all 2,588 cases, vaccinated vs non-vaccinated
# [7] = Table 18, all 2,588 cases, median OS of patients under PPV containing the peptide
# [8] = Table 18, all 2,588 cases, median OS of patients under PPV not containing the peptide
# [9] = Table 19, 2,085 advanced cancer patients (stage IV+recurrence)
# [10] = Table 19, 2,085 advanced cancer patients (stage IV+recurrence), PPV containing the peptide
# [11] = Table 19, 2,085 advanced cancer patients (stage IV+recurrence), PPV not containing the peptide
# [12] = Table 21, patients showing both <64% neutrophil and ≥26% lymphocyte
# [13] = Table 21, patients showing both <64% neutrophil and ≥26% lymphocyte, PPV containing the peptide
# [14] = Table 21, patients showing both <64% neutrophil and ≥26% lymphocyte, PPV not containing the peptide
Sequence,"Post vaccination IgG Median (FIU) [1, 3]","Pre-vaccination IgG Median (FIU) [1, 3] [FIU]","Pre-vaccination IgG Negative (number of patients) [1, 3]","Pre-vaccination IgG Positive (number of patients) [1, 3]","Post vaccination IgG: number of (positive) patients among vaccinated [1, 3]",Pre-vaccination IgG Negative patients [1],Pre-vaccination IgG Positive patients [1],Post vaccination IgG: (positive) patients [1],"Pre-vaccination IgG Median (FIU) [1, 4] [FIU]","Post vaccination IgG Median (FIU) [1, 5]",Correlation between immune responses and OS: Negative (mOS) [1] [months],Correlation between immune responses and OS: Positive (mOS) [1] [months],"HR [2, 6]","Vaccinate cases (mOS) [2, 7]","Non-vaccinate cases (mOS) [2, 8]","HR [2, 9]","Vaccinate cases (mOS) [2, 10]","Non-vaccinate cases (mOS) [2, 11]",Correlation between immune responses and OS: Negative (mOS) [2] [months],Correlation between immune responses and OS: Positive (mOS) [2] [months],further results
WLEYYNLER (listed as Homo sapiens) [SART3-511],"1,095 FIU",38,264,802,179(82),621,"1,967",439(145),41,921 FIU,10.8,22.6,1.0,439(11.0) M,775(11.2) M,1.0,346(9.9) M,623(10.0) M,17.1,29.2,"HR [2, 12]: 0.9; Vaccinate cases (mOS) [2, 13]: 179(19.0) M; Non-vaccinate cases (mOS) [2, 14]: 328(17.5) M"
RLAEYQAYI (listed as Homo sapiens) [SART3-309],"6,009 FIU",33,253,813,154(99),667,"1,921",328(158),35,"3,070 FIU",10.5,21.4,0.9,328(12.1) M,722(11.1) M,0.9,259(11.6) M,603(9.8) M,10.4,28.9,"HR [2, 12]: 0.9; Vaccinate cases (mOS) [2, 13]: 154(19.0) M; Non-vaccinate cases (mOS) [2, 14]: 280(15.6) M"
HYRKWIKDTI (listed as Homo sapiens) [PSA-248],"18,191 FIU",47,231,835,107(81),553,"2,035",283(200),48,"13,165 FIU",7.0,20.2,0.9,283(13.8) M,"1,267(11.6) M",0.9,230(13.0) M,1016(10.2) M,9.6,27.4,"HR [2, 12]: 0.9; Vaccinate cases (mOS) [2, 13]: 107(20.4) M; Non-vaccinate cases (mOS) [2, 14]: 518(17.9) M"
QIRPIFSNR (listed as Homo sapiens) [SART3-734],"7,098 FIU",96,231,835,253(116),547,"2,041",625(225),111,"4,816 FIU",11.0,22.3,1.0,625(10.9) M,589(11.3) M,1.0,502(9.5) M,467(10.2) M,14.8,29.3,"HR [2, 12]: 0.9; Vaccinate cases (mOS) [2, 13]: 253(17.9) M; Non-vaccinate cases (mOS) [2, 14]: 254(17.5) M"
DYSARWNEI (listed as Homo sapiens) [SART2-93],"8,633 FIU",64,141,925,467(183),340,"2,248",1137(362),66,"3,435 FIU",12.3,21.7,0.9,"1,137(12.3) M",413(11.5) M,1.0,906(10.7) M,340(10.2) M,17.3,24.7,"positive rate of patients showing ≥10 FIU, pre-vaccination peptide-specific IgG ([1]; 2,588 patients, pre-vaccination): 87%; HR [2, 12]: 1.0; Vaccinate cases (mOS) [2, 13]: 467(19.0) M; Non-vaccinate cases (mOS) [2, 14]: 158(17.6) M"
ASLDSDPWV (listed as Homo sapiens) [WHSC2-103],916 FIU,40,381,685,289(105),915,"1,673",729(222),43,827 FIU,12.1,19.6,1.0,729(11.5) M,"1,465(11.6) M",1.0,581(10.2) M,1193(10.3) M,14.4,27.1,"HR [2, 12]: 1.0; Vaccinate cases (mOS) [2, 13]: 289(17.6) M; Non-vaccinate cases (mOS) [2, 14]: 617(18.0) M"

# From patent publication US20220233661A1, “METHOD OF DETERMINING ELIGIBILITY OF CANCER PATIENT FOR PEPTIDE VACCINE THERAPY” (priority 2019, published 2022)
